Measurements from patent US20090088439A1, “Diazinane Compounds” (priority 2007, published 2009).

How the values were obtained:
[1] = molecular target: T1, GABABR1a/GABABR2 heterodimer (Homo sapiens, UniProt O75899+Q9UBS5); assay: GTPγS35 radioligand filtration-binding assay for determination of agonist potency; assay type: biochemical; settings: membranes of CHO K1 Flp-In cells expressing GABABR1a/GABABR2; compound alone
T1 construct: expressed in transfected cells; membrane preparation
Protocol: The potency and efficacy of the compounds acting as agonists at the GABAB receptor was also determined in a automated GTPγS^35 radioligand filtration-binding assay.
(§1) The GABAB receptor is a G-protein coupled receptor. Binding of a ligand activates the receptor leading to recruitment of G-protein and a substitution of the G-protein bound GDP to GTP. The G-protein becomes active. The G-protein is inactivated by hydrolysis of GTP to GDP. G-proteins are membrane bound and therefore present in membrane preparations.
(§2) In the GTPγS^35 assay, GTP is not present but instead GTPγS^35 where one of the phosphate groups are substituted to a sulphur group which cannot be hydrolysed. Upon activation of the receptor, radiolabelled GTPγS^35 replaces the GDP. The complex cannot be inactivated and the radiolabelled complex is accumulating. At the end of the assay, the reaction mixture is filtered through a membrane-binding filter. Excess GTPγS^35 is removed by washing and the membrane bound S^35, which correlates to the degree of receptor activation, is measured with a β-Liquid Scintillation Counter.
The human GABABR1a was subcloned into pIRESneo3 (Clontech) using GABABR1a construct as a template (refseqN NM001470). GABABR2 was subcloned into pCDNA5/FRT (Invitrogen) using GABABR2 construct as a template (refseqN NM005458). The Kozak sequence GCCACC was introduced before the start codon in both constructs.
For generation of stable cell lines, CHO K1 Flp-In cells (Invitrogen) were grown in DMEM/F 12 1:1 media supplemented with 10% FBS at 37° C. in a humidified CO2-incubator. The cells were detached with Accutase and 1.5 million cells were seeded into T75 flasks. After 24 h, transfection of the cells were performed with the GABABR2 construct. For generation of cell lines expressing GABABR2, GABABR2 plasmid (1 μg) and pOG44 from Invitrogen (9 μg) were mixed with 30 μl Lipofectamine 2000 in 600 μl OptiMEM for 20 minutes. The cells were exposed to transfection medium for 5 hours and was then replaced with culture medium. After 2 days 0.5 mg/ml Hygromycin were added to culture medium. The cells were cultured for an additional 10 days to establish a stable cell mix expressing GABABR2. For generation of a cell line expressing the GABABR1a/GABABR2 heterodimer, GABABR1a plasmid DNA (8 μg) and Lipofectamine (30 μl) were mixed in 600 μl OptiMEM and incubated for 20 minutes before added to CHO-Flp-In cells expressing GABABR2. After 2 days additional selection agent was added (0.8 mg/ml Geneticin). The cells were cultured for another 10 days to generate a stable mixed population expressing the GABABR1a/GABABR2 heterodimer. The cell line was analyzed by GTPγS^35 assay with GABA as agonist.
GTPγS^35 radioligand filtration-binding assays were performed using an automated workstation at 30° C. for 1 hour in assay buffer (50 mM HEPES, 40 mM NaCl, 1 mM MgCl2×6H2O, 30 μg/mL Saponin, pH 7.4 at RT) containing 0.025 μg/μL of membrane protein (prepared from the cell line described above), 10 μM GDP and 0.55 nCi/μL GTPγS^35 in a final volume of 60 μL. The reaction was started by the addition of compounds (GABA was always included as a positive control), start concentration 100 μM dilution factor 3. The reaction was terminated and membranes collected by addition of ice-cold wash buffer (50 mM Tris-HCl, 5 mM MgCl2×6H2O, 50 mM NaCl, pH 7.4 at 4° C.) followed by rapid filtration under vacuum through a MultiScreen HTS 384 FB filter plate. Repeated washing of the filters with ice-cold wash buffer washed the unbound radioligand away. The filter plates were dried for 1½-2 hours at 50° C., then 8 μL scintillation liquid was added per well followed by incubation at RT for at least 20 minutes before bound radioactivity was determined using a β-Liquid Scintillation Counter (1450 Microbeta Trilux, Wallac, Finland)
100% activation (max) is calculated as the mean value for wells containing 1 mM GABA. […]

[2] = molecular target: T2, GABAB(1A,2) receptor heterodimer (Homo sapiens, UniProt O75899+Q9UBS5); assay: GTPγS35 radioligand filtration-binding assay for determination of PAM potency; assay type: biochemical; settings: membranes of CHO-K1 cells expressing GABABR1a/GABABR2; concentration required to reduce GABA's EC50 by 50%; PAM at 10, 1, 0.1 and 0.01 μM; read-out: Mean (EC50 derived) PAM EC50
T2 construct: expressed in transfected cells; membrane preparation
T2 sequence (Q9UBS5 15-961 limits assumed): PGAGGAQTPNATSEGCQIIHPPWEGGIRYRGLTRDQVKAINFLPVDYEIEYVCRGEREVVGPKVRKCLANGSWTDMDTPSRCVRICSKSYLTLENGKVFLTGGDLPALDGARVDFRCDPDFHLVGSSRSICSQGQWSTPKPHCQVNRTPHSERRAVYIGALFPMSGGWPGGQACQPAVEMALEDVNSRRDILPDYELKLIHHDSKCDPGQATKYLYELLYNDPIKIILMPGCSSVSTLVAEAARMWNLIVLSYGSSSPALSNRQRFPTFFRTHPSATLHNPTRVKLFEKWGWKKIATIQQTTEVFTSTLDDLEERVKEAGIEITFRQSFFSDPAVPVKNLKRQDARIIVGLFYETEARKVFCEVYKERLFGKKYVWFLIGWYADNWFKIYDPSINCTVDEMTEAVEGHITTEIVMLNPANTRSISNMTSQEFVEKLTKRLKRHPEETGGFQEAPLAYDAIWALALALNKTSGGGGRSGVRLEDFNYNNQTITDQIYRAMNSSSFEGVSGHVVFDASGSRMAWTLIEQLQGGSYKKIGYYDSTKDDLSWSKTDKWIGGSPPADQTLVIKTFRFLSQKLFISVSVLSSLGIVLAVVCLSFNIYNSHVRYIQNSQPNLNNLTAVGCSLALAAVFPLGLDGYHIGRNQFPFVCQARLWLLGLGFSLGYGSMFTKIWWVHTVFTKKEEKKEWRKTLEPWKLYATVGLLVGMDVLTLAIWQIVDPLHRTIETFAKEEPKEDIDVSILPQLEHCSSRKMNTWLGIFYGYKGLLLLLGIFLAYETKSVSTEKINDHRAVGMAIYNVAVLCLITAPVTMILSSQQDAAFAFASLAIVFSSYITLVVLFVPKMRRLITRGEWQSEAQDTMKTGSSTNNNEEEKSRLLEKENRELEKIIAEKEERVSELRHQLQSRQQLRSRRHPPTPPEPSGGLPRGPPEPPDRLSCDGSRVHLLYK
T2 sequence (O75899 42-941): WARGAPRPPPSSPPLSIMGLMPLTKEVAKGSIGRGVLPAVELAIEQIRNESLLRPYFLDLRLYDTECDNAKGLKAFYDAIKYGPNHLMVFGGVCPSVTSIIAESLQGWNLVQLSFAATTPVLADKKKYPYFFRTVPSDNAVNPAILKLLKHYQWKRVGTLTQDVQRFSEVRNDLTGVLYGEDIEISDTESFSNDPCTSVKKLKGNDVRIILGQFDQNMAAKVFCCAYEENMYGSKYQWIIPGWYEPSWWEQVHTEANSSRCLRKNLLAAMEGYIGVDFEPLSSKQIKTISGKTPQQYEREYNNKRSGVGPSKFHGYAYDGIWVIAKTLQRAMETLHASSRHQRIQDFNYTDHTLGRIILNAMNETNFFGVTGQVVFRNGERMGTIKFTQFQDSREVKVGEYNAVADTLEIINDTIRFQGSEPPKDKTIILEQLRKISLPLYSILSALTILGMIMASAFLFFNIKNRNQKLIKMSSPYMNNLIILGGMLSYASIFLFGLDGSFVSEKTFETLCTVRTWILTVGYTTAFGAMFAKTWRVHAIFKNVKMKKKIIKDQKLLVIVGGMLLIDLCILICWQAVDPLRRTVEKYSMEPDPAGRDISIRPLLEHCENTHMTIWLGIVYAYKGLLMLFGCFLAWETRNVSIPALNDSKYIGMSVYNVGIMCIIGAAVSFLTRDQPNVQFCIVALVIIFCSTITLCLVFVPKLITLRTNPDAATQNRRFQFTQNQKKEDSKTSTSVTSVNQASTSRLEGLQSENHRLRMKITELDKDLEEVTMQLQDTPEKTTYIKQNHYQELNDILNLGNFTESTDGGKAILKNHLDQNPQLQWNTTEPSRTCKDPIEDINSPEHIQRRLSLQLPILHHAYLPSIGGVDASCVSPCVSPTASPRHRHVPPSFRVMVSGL
From the text: The effect of GABA in an automated GTPγS^35 radioligand filtration-binding assay in CHO cells expressing the GABAB(1A,2) receptor heterodimer was studied in the presence or absence of the positive allosteric modulator test compounds. […]
as §1, §2
GABABR1a and GABABR2 were cloned from human brain cDNA and subcloned into pCI-Neo (Promega) and pALTER-1 (Promega), respectively.
In order to optimise the Kozak consensus sequence of GABABR2, in situ mutagenesis was performed using the Altered Sites Mutagenesis kit according to manufacturer's instruction (Promega) with the following primer,
5′-[…]-3′. The optimised GABABR2 was then restricted from pALTER-1 with Xho I+Kpn I and subcloned into the mammalian expression vector pcDNA3.1(−)/Zeo (Invitrogen) to produce the final construct, pcDNA3.1(−)/Zeo-GABABR2.
For generation of stable cell lines, CHO-K1 cells were grown in Nut mix F-12 (Ham) media supplemented with 10% FBS, 100 U/ml Penicillin and 100 μg/ml Streptomycin at 37° C. in a humidified CO2-incubator. The cells were detached with 1 mM EDTA in PBS and 1 million cells were seeded in 100 mm petri dishes. After 24 hours the culture media was replaced with OptiMEM and incubated for 1 hour in a CO2-incubator.
For generation of a cell line expressing the GABABR1a/GABABR2 heterodimer, GABABR1a plasmid DNA (4 μg) GABABR2 plasmid DNA (4 μg) and lipofectamine (24 μl) were mixed in 5 ml OptiMEM and incubated for 45 minutes at room temperature. The cells were exposed to the transfection medium for 5 hours, which then was replaced with culture medium. The cells were cultured for an additional 10 days before selection agents (300 μg/ml hygromycin and 400 μg/ml geneticin) were added. Twenty-four days after transfection, single cell sorting into 96-well plates by flow cytometry was performed using a FACS Vantage SE (Becton Dickinson, Palo Alto, Calif.). After expansion, the GABAB receptor functional response was tested by measuring the GABAB receptor dependent release of intracellular calcium in a fluorescence imaging plate reader (FLIPR). The clone with the highest functional response was collected, expanded and then subcloned by single cell sorting. The clonal cell line with the highest peak response in the FLIPR was used in the present study.
GTPγS^35 radioligand filtration-binding assays were performed using an automated workstation at 30° C. for 1 hour in assay buffer (50 mM HEPES, 40 mM NaCl, 1 mM MgCl2×6H2O, 30 μg/mL Saponin, pH 7.4 at RT) containing 0.025 μg/μL of membrane protein (prepared from the cell line described above), 10 μM GDP and 0.55 nCi/μL GTPγS^35 in a final volume of 60 μL. The reaction was started by the addition of serially diluted GABA (final start concentration 1 mM dilution factor 3) in the presence or absence of four concentrations (final conc 10, 1, 0.1 and 0.01 μM) of PAM. The reaction was terminated and membranes collected by addition of ice-cold wash buffer (50 mM Tris-HCl, 5 mM MgCl2×6H2O, 50 mM NaCl, pH 7.4 at 4° C.) followed by rapid filtration under vacuum through a MultiScreen HTS 384 FB filter plate. […]

T1 sequence (Q9UBS5 15-961 limits assumed): as the sequence (Q9UBS5 15-961 limits assumed) above
T1 sequence (O75899 42-941): as the sequence (O75899 42-941) above

| EC50 [1] [nM] | EC50 [2] [nM] | Compound |
| --- | --- | --- |
| 800 | 800 | CCCn1c(=O)n(Cc2ccc(Cl)cc2)c(=O)c2nc3c(nc21)CCCC3 [Example 20, 3-(4-chlorobenzyl)-1-propyl-6,7,8,9-tetrahydrobenzo[g]pteridine-2,4(1H,3H)-dione] |
| 4700 | 800 | CC(C)(C)CCn1c(=O)n(Cc2ccc(Cl)cc2)c(=O)c2nccnc21 [Example 6, 3-(4-chlorobenzyl)-1-(3,3-dimethylbutyl)pteridine-2,4(1H,3H)-dione] |
| 36800 | 1300 | CCCn1c(=O)n(Cc2ccc(Cl)cc2)c(=O)c2nc(C)c(C)nc21 [Example 15, 3-(4-chlorobenzyl)-6,7-dimethyl-1-propylpteridine-2,4(1H,3H)-dione] |
